System: enhancer region of cytochrome 1A1 gene
Assay: Detection of nitrogen monoxide (NO.) having responded to carcinogenicity by iNOS vector pXRE-SV40-NOS2 (DAF2-DA fluorescence)
Assay type: cell-based, mouse
Settings: Neuro2a transfected with pXRE-SV40-NOS2; 1.0 μM, 24 hours; compared with DMSO; inverted fluorescence microscope (FIG. 3A, 3B)
Text: An enhancer region responsive to a carcinogenic substance was incorporated in the iNOS vector: pSV40-NOS2. The enhancer region of cytochrome 1A1 gene responsive to a carcinogenic substance (benzopyrene) (SEQ ID NO: 4) was amplified by PCR from a mouse genome. The 5′ terminal of the amplified enhancer region was phosphorylated with T4 polynucleotide kinase, and ligated using T4 ligase to pSV40-NOS2 having been digested with restriction enzyme Sma I and having its 5′ terminal dephosphorylated with alkali phosphatase, thereby obtaining pXRE-SV40-NOS2 (FIG. 2). Using this vector, the correlation of the activation of the enhancer region by a carcinogenic substance with the amount of nitrogen monoxide (NO.) synthesized by iNOS was studied.
Mouse neuroblastoma Neuro2a (American Type Cell Culture) was seeded on a 24-well plate at a density of 8.0×10^4 cells/well, and using DMEM/F12 medium (DF1:1 medium) supplemented with 10% fetal calf serum (FCS), cultured overnight in a 5% CO2 atmosphere at 37° C. […] Two hours later, the cells were washed with phosphate buffer (PBS) twice, and the fluorescence by the reaction product of DAF-2DA and nitrogen monoxide (NO.) (DAF-2T, excitation wavelength: 495 nm, fluorescence wavelength: 515 nm) was observed by means of an inverted fluorescence microscope.

c1ccc2c(c1)c1cccc3ccc4cccc2c4c31 [benzopyrene]
fluorescence by the reaction product of DAF-2DA and nitrogen monoxide (NO.): induction of fluorescence
